ChEMBL document CHEMBL1135098, “Design, synthesis and evaluation of substituted phenylpropanoic acid derivatives as peroxisome proliferator-activated receptor (PPAR) activators: novel human PPARalpha-selective activators” (Bioorg Med Chem Lett, 2002)
pEC50: −log10 of the molar value.

What was measured:
[1] = molecular target: T1, Peroxisome proliferator-activated receptor gamma (Homo sapiens, UniProt P37231); test: […] of human Peroxisome proliferator activated receptor gamma in CHO-K1 cells;ia means inactive at 10 uM; format: cell-based
T1 sequence (P37231 whole entry): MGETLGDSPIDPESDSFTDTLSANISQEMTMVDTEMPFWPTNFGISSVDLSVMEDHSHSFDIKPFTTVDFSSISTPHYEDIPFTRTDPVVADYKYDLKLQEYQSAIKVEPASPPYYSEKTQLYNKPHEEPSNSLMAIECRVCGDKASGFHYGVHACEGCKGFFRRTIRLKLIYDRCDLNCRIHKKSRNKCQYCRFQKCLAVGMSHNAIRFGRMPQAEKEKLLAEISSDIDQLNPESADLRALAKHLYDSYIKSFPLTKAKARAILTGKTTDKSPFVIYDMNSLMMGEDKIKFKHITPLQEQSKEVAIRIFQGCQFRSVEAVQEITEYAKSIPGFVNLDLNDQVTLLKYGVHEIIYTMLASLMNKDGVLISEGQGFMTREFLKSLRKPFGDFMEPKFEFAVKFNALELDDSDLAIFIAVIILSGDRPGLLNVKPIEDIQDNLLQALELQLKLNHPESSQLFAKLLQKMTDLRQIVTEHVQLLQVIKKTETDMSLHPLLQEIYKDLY

[2] = molecular target: T2, Peroxisome proliferator-activated receptor alpha (Homo sapiens, UniProt Q07869); test: Concentration of compound that affords half-maximum transactivation of human Peroxisome proliferator activated receptor alpha in CHO-K1 cells was determined in vitro;ia means inactive at 10 uM; format: cell-based
T2 sequence (Q07869 whole entry): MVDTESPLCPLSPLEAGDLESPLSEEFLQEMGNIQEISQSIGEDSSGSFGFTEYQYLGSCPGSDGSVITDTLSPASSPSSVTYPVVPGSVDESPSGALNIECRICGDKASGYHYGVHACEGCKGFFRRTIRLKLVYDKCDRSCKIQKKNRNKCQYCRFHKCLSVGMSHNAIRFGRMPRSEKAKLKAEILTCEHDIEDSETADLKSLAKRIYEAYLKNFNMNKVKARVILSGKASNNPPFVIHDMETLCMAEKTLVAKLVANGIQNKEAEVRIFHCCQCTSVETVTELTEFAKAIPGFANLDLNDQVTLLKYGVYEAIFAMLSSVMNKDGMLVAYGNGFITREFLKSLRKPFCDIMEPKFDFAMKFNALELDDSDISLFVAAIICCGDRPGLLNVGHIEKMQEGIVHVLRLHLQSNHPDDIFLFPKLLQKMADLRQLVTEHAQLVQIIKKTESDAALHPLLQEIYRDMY

[3] = molecular target: T2, Peroxisome proliferator-activated receptor alpha; test: Transactivation of human Peroxisome proliferator activated receptor alpha expressed in CHO-K1 cells; format: cell-based
[4] = molecular target: T1, Peroxisome proliferator-activated receptor gamma
Description: Concentration of compound that affords half-maximum transactivation of human Peroxisome proliferator activated receptor gamma in CHO-K1 cells was determined in vitro

Row | SMILES | EC50 [1] | EC50 [2] | other results
1 | COc1ccc(CCC(=O)O)cc1C(=O)NCc1ccc(C(F)(F)F)cc1 | Not Active |  | 
2 | CCC(CC)(Cc1ccc(OC)c(C(=O)NCc2ccc(C(F)(F)F)cc2)c1)C(=O)O | Not Active |  | 
3 | COc1ccc(CC(C(=O)O)c2ccccc2)cc1C(=O)NCc1ccc(C(F)(F)F)cc1 (stereo not drawn) | Not Active | Not Active | 
4 | COc1ccc(CC(C(=O)O)C(C)C)cc1C(=O)NCc1ccc(C(F)(F)F)cc1 (stereo not drawn) | Not Active |  | 
5 | CCCC(Cc1ccc(OC)c(C(=O)NCc2ccc(C(F)(F)F)cc2)c1)C(=O)O (stereo not drawn) | Not Active |  | 
6 | COc1ccc(CCCC(=O)O)cc1C(=O)NCc1ccc(C(F)(F)F)cc1 |  |  | pEC50 [3]: 5.66; pEC50 [4]: 5.52
7 | CC(C)(Oc1ccc(CCNC(=O)c2ccc(Cl)cc2)cc1)C(=O)O [BEZAFIBRATE] |  |  | pEC50 [4]: < 3.86
8 | COc1ccc(CC(=O)O)cc1C(=O)NCc1ccc(C(F)(F)F)cc1 | Not Active | Not Active | 

Second part, led by results:

Row | EC50 [1] | EC50 [2] | SMILES | other results
9 | Not Active | Not Active | COc1ccc(C(=O)O)cc1C(=O)NCc1ccc(C(F)(F)F)cc1 | 
10 | Not Active |  | COc1ccc(CC(OC)C(=O)O)cc1C(=O)NCc1ccc(C(F)(F)F)cc1 (stereo not drawn) | 
11 | Not Active |  | COc1ccc(CC(C)C(=O)O)cc1C(=O)NCc1ccc(C(F)(F)F)cc1 (stereo not drawn) | 
12 | Not Active | Not Active | COc1ccc(CC(Oc2ccccc2)C(=O)O)cc1C(=O)NCc1ccc(C(F)(F)F)cc1 (stereo not drawn) | 
13 | Not Active |  | COc1ccc(CC(C)(C)C(=O)O)cc1C(=O)NCc1ccc(C(F)(F)F)cc1 | 
